From patent US6673938B1, “Substituted pyridine herbicides” (Syngenta Participations AG, priority 1998, dated 2004)
“And” between values parts separate entries of the source, which are not always exact repeats. Equal entries are not always repeated.

Assays:
[1] = system: Monocotyledonous and dicotyledonous test plants; assay: Herbicidal action before emergence of the plants (pre-emergence action); assay type: in vivo; conditions: evaluated after 3 weeks, nine-step scale; for Pre-emergence action, Abutilon / Pre-emergence action, Amaranthus / Pre-emergence action, Chenop. / Pre-emergence action, Digitaria / Pre-emergence action, Echino. / Pre-emergence action, Panicum: 250 g/ha; for pre-emergence action, Cyperus / pre-emergence action, Ipomoea / pre-emergence action, Setaria / pre-emergence action, Sinapis / pre-emergence action, Solanum / pre-emergence action, Stellaria: 2000 g/ha
Method: Monocotyledonous and dicotyledonous test plants are sown in standard soil in plastic pots. Immediately after sowing, the test substances as aqueous suspensions (prepared with a 25% wettable powder (Example F3, b) in accordance with WO 97/34485) or as emulsions (prepared with a 25% emulsion concentrate (Example F1, c)) are sprayed on at a rate of 2 kg of a.i./ha or 250 g of a.i./ha (500 l of water/ha). The test plants are then grown in the greenhouse under optimal conditions. After a test period of 3 weeks, the experiment is evaluated with reference to a nine-step scale (1=complete damage, 9=no effect). Score figures of 1 to 4 (in particular 1 to 3) mean a good to very good herbicidal action.

[2] = system: Monocotyledonous and dicotyledonous test plants; assay: Post-emergence herbicidal action; assay type: in vivo; conditions: evaluated after approximately 18 days; for Post-emergence action: Abutilon (score, nine-step scale) / Post-emergence action: Chenop. (score, nine-step scale) / Post-emergence action: Digitaria (score, nine-step scale) / Post-emergence action: Echino. (score, nine-step scale) / Post-emergence action: Ipopur. (score, nine-step scale) / Post-emergence action: Panicum (score, nine-step scale) / Post-emergence action: Xanth. (score, nine-step scale): 250 g/ha, sprayed at 4- to 6-leaf stage; for Post-emergence action, Ipomoea / Post-emergence action, Lolium / Post-emergence action, Setaria / Post-emergence action, Sinapis / Post-emergence action, Solanum / Post-emergence action, Stellaria: 2000 g/ha, sprayed in 4- to 6-leaf stage, nine-step scale
Method: Monocotyledonous and dicotyledonous test plants are grown in the greenhouse in plastic pots containing standard soil, and, in the 4- to 6-leaf stage, sprayed with an aqueous suspension of the test substances of the formula I prepared with a 25% wettable powder (Example F3, b) in accordance with WO 97/34485) or with an emulsion of the test substances of the formula I prepared with a 25% emulsion concentrate (Example F1, c) in accordance with WO 97/34485), corresponding to a rate of 2 kg of a.i./ha or 250 g of a.i./ha (500 l of water/ha). The test plants are subsequently grown on in the greenhouse under optimal conditions. After a test period of approximately 18 days, the test is evaluated with reference to a nine-step scale (1=complete damage, 9=no effect). Score figures of 1 to 4 (in particular 1 to 3) mean a good to very good herbicidal action. In this test, the compounds of the formula I show a potent herbicidal action.

Cc1c(C(=O)C2=C(Cl)C(C)(C)C(=O)C(C)(C)C2=O)ccc(C(F)(F)F)[n+]1[O-] [Compound A1210-B1105, 5-Chloro-2,2,6,6-tetramethyl-4-(2-methyl-1-oxy-6-trifluoromethylpyridine-3-carbonyl)cyclohex-4-ene-1,3-dione]
Pre-emergence action, Abutilon [1]: 1 | Pre-emergence action, Amaranthus [1]: 4 | Pre-emergence action, Chenop. [1]: 1 | Pre-emergence action, Digitaria [1]: 3 | Pre-emergence action, Echino. [1]: 2 | Pre-emergence action, Panicum [1]: 2 | Post-emergence action: Abutilon (score, nine-step scale) [2]: 2 | Post-emergence action: Chenop. (score, nine-step scale) [2]: 1 | Post-emergence action: Digitaria (score, nine-step scale) [2]: 2 | Post-emergence action: Echino. (score, nine-step scale) [2]: 3 | Post-emergence action: Ipopur. (score, nine-step scale) [2]: 2 | Post-emergence action: Panicum (score, nine-step scale) [2]: 1 | Post-emergence action: Xanth. (score, nine-step scale) [2]: 2

CCc1nc(C(F)(F)F)ccc1C(=O)C1=C(O)CCCC1=O [Compound A3-B1]
pre-emergence action, Cyperus [1]: 2 | pre-emergence action, Ipomoea [1]: 2 | pre-emergence action, Setaria [1]: 4 | pre-emergence action, Sinapis [1]: 2 | pre-emergence action, Solanum [1]: 3 | pre-emergence action, Stellaria [1]: 2 | Post-emergence action, Ipomoea [2]: 1 | Post-emergence action, Lolium [2]: 3 | Post-emergence action, Setaria [2]: 2 | Post-emergence action, Sinapis [2]: 1 | Post-emergence action, Solanum [2]: 1 | Post-emergence action, Stellaria [2]: 2

Cc1nc(C(F)(F)F)ccc1C(=O)C1=C(O)CC2CCCC2C1=O (centres unmarked) [Compound A2-D36]
pre-emergence action, Cyperus [1]: 1 | pre-emergence action, Ipomoea [1]: 2 | pre-emergence action, Setaria [1]: 2 and 1 | pre-emergence action, Sinapis [1]: 2 | pre-emergence action, Stellaria [1]: 1 | Post-emergence action, Ipomoea [2]: 2 | Post-emergence action, Lolium [2]: 2 and 1 | Post-emergence action, Setaria [2]: 2 and 1 | Post-emergence action, Sinapis [2]: 1 | Post-emergence action, Solanum [2]: 2 and 1 | Post-emergence action, Stellaria [2]: 2 and 1

COCc1nc(C(F)(F)F)ccc1C(=O)C1=C([S+]([O-])c2ccccc2)CCCC1=O (centres unmarked) [Compound A8-B1103]
pre-emergence action, Cyperus [1]: 1 | pre-emergence action, Ipomoea [1]: 3 | pre-emergence action, Setaria [1]: 2 | pre-emergence action, Sinapis [1]: 1 | pre-emergence action, Solanum [1]: 1 | pre-emergence action, Stellaria [1]: 2 | Post-emergence action, Ipomoea [2]: 1 | Post-emergence action, Lolium [2]: 4 | Post-emergence action, Setaria [2]: 1 | Post-emergence action, Sinapis [2]: 1 | Post-emergence action, Solanum [2]: 1 | Post-emergence action, Stellaria [2]: 1

COCc1nc(C(F)(F)F)ccc1C(=O)C1=C(O)CCCC1=O [Compound A8-B1]
Pre-emergence action, Abutilon [1]: 1 | Pre-emergence action, Amaranthus [1]: 1 | Pre-emergence action, Chenop. [1]: 1 | Pre-emergence action, Digitaria [1]: 2 | Pre-emergence action, Echino. [1]: 2 | Pre-emergence action, Panicum [1]: 2 | Post-emergence action: Abutilon (score, nine-step scale) [2]: 3 | Post-emergence action: Chenop. (score, nine-step scale) [2]: 2 | Post-emergence action: Digitaria (score, nine-step scale) [2]: 3 | Post-emergence action: Echino. (score, nine-step scale) [2]: 3 | Post-emergence action: Ipopur. (score, nine-step scale) [2]: 3 | Post-emergence action: Panicum (score, nine-step scale) [2]: 4 | Post-emergence action: Xanth. (score, nine-step scale) [2]: 3

Cc1nc(C(F)(F)F)ccc1C(=O)C1=C(O)C(C)CC(C)C1=O (stereo not drawn) [A2-B46 (trans)]
pre-emergence action, Cyperus [1]: 1 | pre-emergence action, Ipomoea [1]: 2 | pre-emergence action, Setaria [1]: 1 | pre-emergence action, Sinapis [1]: 2 | pre-emergence action, Solanum [1]: 1 | pre-emergence action, Stellaria [1]: 2 | Post-emergence action, Ipomoea [2]: 1 | Post-emergence action, Lolium [2]: 2 | Post-emergence action, Setaria [2]: 2 | Post-emergence action, Sinapis [2]: 1 | Post-emergence action, Solanum [2]: 1 | Post-emergence action, Stellaria [2]: 2

CCc1nc(C(F)(F)F)ccc1C(=O)C1=C(O)C(C)(C)CCC1=O [Compound A3-B24]
pre-emergence action, Cyperus [1]: 1 | pre-emergence action, Ipomoea [1]: 3 | pre-emergence action, Setaria [1]: 2 | pre-emergence action, Sinapis [1]: 2 | pre-emergence action, Solanum [1]: 1 | pre-emergence action, Stellaria [1]: 2 | Post-emergence action, Ipomoea [2]: 2 | Post-emergence action, Lolium [2]: 2 | Post-emergence action, Setaria [2]: 2 | Post-emergence action, Sinapis [2]: 1 | Post-emergence action, Solanum [2]: 2 | Post-emergence action, Stellaria [2]: 2

CSC1(C)CC(C)C(=O)C(C(=O)c2ccc(C(F)(F)F)nc2C)=C1O (centres unmarked) [Compound A2-B73]
pre-emergence action, Cyperus [1]: 3 | pre-emergence action, Ipomoea [1]: 4 | pre-emergence action, Setaria [1]: 2 | pre-emergence action, Sinapis [1]: 2 | pre-emergence action, Solanum [1]: 2 | pre-emergence action, Stellaria [1]: 2 | Post-emergence action, Ipomoea [2]: 1 | Post-emergence action, Lolium [2]: 3 | Post-emergence action, Setaria [2]: 2 | Post-emergence action, Sinapis [2]: 1 | Post-emergence action, Solanum [2]: 1 | Post-emergence action, Stellaria [2]: 2

CCC1(C)CC(C)(C)C(=O)C(C(=O)c2ccc(C(F)(F)F)nc2C)=C1O (centres unmarked) [Compound A2-B91]
pre-emergence action, Cyperus [1]: 1 | pre-emergence action, Ipomoea [1]: 2 | pre-emergence action, Setaria [1]: 1 | pre-emergence action, Sinapis [1]: 2 | pre-emergence action, Solanum [1]: 1 | pre-emergence action, Stellaria [1]: 2 | Post-emergence action, Ipomoea [2]: 1 | Post-emergence action, Lolium [2]: 2 | Post-emergence action, Setaria [2]: 2 | Post-emergence action, Sinapis [2]: 1 | Post-emergence action, Solanum [2]: 2 | Post-emergence action, Stellaria [2]: 2

Cc1nc(C(F)(F)F)ccc1C(=O)C1=C(O)C(C)(C)CC2(CC2)C1=O [Compound A2-C24]
pre-emergence action, Cyperus [1]: 1 | pre-emergence action, Ipomoea [1]: 2 | pre-emergence action, Setaria [1]: 1 | pre-emergence action, Sinapis [1]: 1 | pre-emergence action, Solanum [1]: 1 | pre-emergence action, Stellaria [1]: 2 | Post-emergence action, Ipomoea [2]: 1 | Post-emergence action, Lolium [2]: 1 | Post-emergence action, Setaria [2]: 1 | Post-emergence action, Sinapis [2]: 1 | Post-emergence action, Solanum [2]: 1 | Post-emergence action, Stellaria [2]: 1

COCc1nc(C(F)(F)F)ccc1C(=O)C1=C(O)C(C)(C)C(C)CC1=O (centres unmarked) [Compound A8-B156]
Pre-emergence action, Abutilon [1]: 3 | Pre-emergence action, Amaranthus [1]: 4 | Pre-emergence action, Chenop. [1]: 2 | Pre-emergence action, Digitaria [1]: 3 | Pre-emergence action, Echino. [1]: 3 | Pre-emergence action, Panicum [1]: 3 | Post-emergence action: Abutilon (score, nine-step scale) [2]: 1 | Post-emergence action: Chenop. (score, nine-step scale) [2]: 1 | Post-emergence action: Digitaria (score, nine-step scale) [2]: 3 | Post-emergence action: Echino. (score, nine-step scale) [2]: 3 | Post-emergence action: Ipopur. (score, nine-step scale) [2]: 2 | Post-emergence action: Panicum (score, nine-step scale) [2]: 2 | Post-emergence action: Xanth. (score, nine-step scale) [2]: 2

CCC1(C)CC(C)C(=O)C(C(=O)c2ccc(C(F)(F)F)nc2C)=C1O (centres unmarked) [Compound A2-B69]
pre-emergence action, Cyperus [1]: 1 | pre-emergence action, Ipomoea [1]: 4 | pre-emergence action, Setaria [1]: 2 | pre-emergence action, Sinapis [1]: 2 | pre-emergence action, Solanum [1]: 1 | pre-emergence action, Stellaria [1]: 1 | Post-emergence action, Ipomoea [2]: 1 | Post-emergence action, Lolium [2]: 2 | Post-emergence action, Setaria [2]: 2 | Post-emergence action, Sinapis [2]: 1 | Post-emergence action, Solanum [2]: 2 | Post-emergence action, Stellaria [2]: 2

COC(=O)C1C(O)=C(C(=O)c2ccc(C(F)(F)F)nc2C)C(=O)CC1C (centres unmarked) [Compound A2-B144]
pre-emergence action, Cyperus [1]: 3 | pre-emergence action, Ipomoea [1]: 4 | pre-emergence action, Setaria [1]: 2 | pre-emergence action, Sinapis [1]: 2 | pre-emergence action, Solanum [1]: 2 | pre-emergence action, Stellaria [1]: 4
